Measured values as given in PubChem BioAssay (NCI).
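GI50: concentration for 50% inhibition of growth. Definition used: TGI = concentration required for complete inhibition of growth.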

Assays:
Assay in all cases: NCI anticancer screen, dose series, 384-well format
SW-620 colon = tested on: SW-620 colon
DU-145 prostate = tested on: DU-145 prostate
UO-31 renal = tested on: UO-31 renal
A549 NSCLC = tested on: A549 NSCLC
SF-539 CNS = tested on: SF-539 CNS
SK-OV-3 ovarian = tested on: SK-OV-3 ovarian
SR leukemia = tested on: SR leukemia
786-0 renal = tested on: 786-0 renal
HCC-2998 colon = tested on: HCC-2998 colon
SNB-75 CNS = tested on: SNB-75 CNS
SK-MEL-5 melanoma = tested on: SK-MEL-5 melanoma
OVCAR-8 ovarian = tested on: OVCAR-8 ovarian
HOP-92 NSCLC = tested on: HOP-92 NSCLC
SK-MEL-28 melanoma = tested on: SK-MEL-28 melanoma
BT-549 breast = tested on: BT-549 breast
MDA-MB-231 breast = tested on: MDA-MB-231 breast
NCI-H460 NSCLC = tested on: NCI-H460 NSCLC
NCI/ADR-RES ovarian = tested on: NCI/ADR-RES ovarian
PC-3 prostate = tested on: PC-3 prostate
NCI-H23 lung = tested on: NCI-H23 lung
MDA-MB-435 melanoma = tested on: MDA-MB-435 melanoma
TK-10 renal = tested on: TK-10 renal
RXF 393 renal = tested on: RXF 393 renal
HCT-15 colon = tested on: HCT-15 colon
SN12C renal = tested on: SN12C renal
U251 glioblastoma = tested on: U251 glioblastoma
NCI-H226 lung = tested on: NCI-H226 lung
ACHN renal = tested on: ACHN renal
CAKI-1 renal = tested on: CAKI-1 renal
HL-60(TB) leukemia = tested on: HL-60(TB) leukemia
OVCAR-5 ovarian = tested on: OVCAR-5 ovarian
K-562 leukemia = tested on: K-562 leukemia
MOLT-4 leukemia = tested on: MOLT-4 leukemia
SF-295 CNS = tested on: SF-295 CNS
MDA-MB-468 breast = tested on: MDA-MB-468 breast
NCI-H522 lung = tested on: NCI-H522 lung
HOP-62 NSCLC = tested on: HOP-62 NSCLC
MCF7 breast = tested on: MCF7 breast
OVCAR-3 ovarian = tested on: OVCAR-3 ovarian
M14 melanoma = tested on: M14 melanoma
MALME-3M melanoma = tested on: MALME-3M melanoma
HS 578T breast = tested on: HS 578T breast
COLO 205 colon = tested on: COLO 205 colon
KM12 colon = tested on: KM12 colon
OVCAR-4 ovarian = tested on: OVCAR-4 ovarian
HT29 colon = tested on: HT29 colon
SF-268 CNS = tested on: SF-268 CNS
UACC-257 melanoma = tested on: UACC-257 melanoma
UACC-62 melanoma = tested on: UACC-62 melanoma
RPMI-8226 leukemia = tested on: RPMI-8226 leukemia
SNB-19 CNS = tested on: SNB-19 CNS
T-47D breast = tested on: T-47D breast
NCI-H322M lung = tested on: NCI-H322M lung
SK-MEL-2 melanoma = tested on: SK-MEL-2 melanoma
LOX IMVI melanoma = tested on: LOX IMVI melanoma
A498 renal = tested on: A498 renal
HCT-116 colon = tested on: HCT-116 colon
EKVX NSCLC = tested on: EKVX NSCLC
IGROV1 ovarian = tested on: IGROV1 ovarian

Compound: COc1cc(OC)cc(N(CCNC(C)C)c2ccc3ncc(-c4cnn(C)c4)nc3c2)c1
- GI50 (SW-620 colon): 4.34 µM
- TGI (SW-620 colon): 14.2 µM
- GI50 (DU-145 prostate): 4.12 µM
- TGI (DU-145 prostate): 14 µM
- GI50 (UO-31 renal): 3.04 µM
- TGI (UO-31 renal): 8.81 µM
- GI50 (A549 NSCLC): 3.73 µM
- TGI (A549 NSCLC): 11.2 µM
- GI50 (SF-539 CNS): 0.946 µM
- TGI (SF-539 CNS): 7.77 µM
- GI50 (SK-OV-3 ovarian): 2.01 µM
- TGI (SK-OV-3 ovarian): 5.35 µM
- GI50 (SR leukemia): 1.57 µM
- TGI (SR leukemia): 2.94 µM
- GI50 ([…]-0 renal): 2.17 µM
- TGI (786-0 renal): 5.11 µM
- GI50 (HCC-2998 colon): 4.52 µM
- TGI (HCC-2998 colon): 9.47 µM
- GI50 (SNB-75 CNS): 0.132 µM
- TGI (SNB-75 CNS): 1.69 µM
- GI50 (SK-MEL-5 melanoma): 1.66 µM
- TGI (SK-MEL-5 melanoma): 3.66 µM
- GI50 (OVCAR-8 ovarian): 5.09 µM
- TGI (OVCAR-8 ovarian): 14.1 µM
- GI50 (HOP-92 NSCLC): 2.91 µM
- TGI (HOP-92 NSCLC): 9.38 µM
- GI50 (SK-MEL-28 melanoma): 6.2 µM
- TGI (SK-MEL-28 melanoma): 16.4 µM
- GI50 (BT-549 breast): 0.63 µM
- TGI (BT-549 breast): 5.83 µM
- GI50 (MDA-MB-231 breast): 2.75 µM
- TGI (MDA-MB-231 breast): 8.18 µM
- GI50 (NCI-H460 NSCLC): 2.63 µM
- TGI (NCI-H460 NSCLC): 7.1 µM
- GI50 (NCI/ADR-RES ovarian): 3.56 µM
- TGI (NCI/ADR-RES ovarian): 11.8 µM
- GI50 (PC-3 prostate): 3.61 µM
- TGI (PC-3 prostate): 13.1 µM
- GI50 (NCI-H23 lung): 4.66 µM
- TGI (NCI-H23 lung): 13.5 µM
- GI50 (MDA-MB-435 melanoma): 3.49 µM
- TGI (MDA-MB-435 melanoma): 10.6 µM
- GI50 (TK-10 renal): 2.79 µM
- TGI (TK-10 renal): 10.1 µM
- GI50 (RXF 393 renal): 1.02 µM
- TGI (RXF 393 renal): 2.89 µM
- GI50 (HCT-15 colon): 2.99 µM
- TGI (HCT-15 colon): 10.1 µM
- GI50 (SN12C renal): 3.19 µM
- TGI (SN12C renal): 10.8 µM
- GI50 (U251 glioblastoma): 5.92 µM
- TGI (U251 glioblastoma): 14.8 µM
- GI50 (NCI-H226 lung): 2.57 µM
- TGI (NCI-H226 lung): 11 µM
- GI50 (ACHN renal): 2.03 µM
- TGI (ACHN renal): 5.45 µM
- GI50 (CAKI-1 renal): 1.59 µM
- TGI (CAKI-1 renal): 4.16 µM
- GI50 (HL-60(TB) leukemia): 2.51 µM
- TGI (HL-60(TB) leukemia): 4.65 µM
- GI50 (OVCAR-5 ovarian): 5.47 µM
- TGI (OVCAR-5 ovarian): 17 µM
- GI50 (K-562 leukemia): 0.89 µM
- TGI (K-562 leukemia): 2.15 µM
- GI50 (MOLT-4 leukemia): 1.51 µM
- TGI (MOLT-4 leukemia): 2.93 µM
- GI50 (SF-295 CNS): 9.3 µM
- TGI (SF-295 CNS): 18.3 µM
- GI50 (MDA-MB-468 breast): 2.01 µM
- TGI (MDA-MB-468 breast): 4.47 µM
- GI50 (NCI-H522 lung): 3.44 µM
- TGI (NCI-H522 lung): 10.3 µM
- GI50 (HOP-62 NSCLC): 4.16 µM
- TGI (HOP-62 NSCLC): 13 µM
- GI50 (MCF7 breast): 7.81 µM
- TGI (MCF7 breast): 15.3 µM
- GI50 (OVCAR-3 ovarian): 3.62 µM
- TGI (OVCAR-3 ovarian): 13.1 µM
- GI50 (M14 melanoma): 2.85 µM
- TGI (M14 melanoma): 7.68 µM
- GI50 (MALME-3M melanoma): 2.27 µM
- TGI (MALME-3M melanoma): 4.97 µM
- GI50 (HS 578T breast): 1.5 µM
- TGI (HS 578T breast): 3.73 µM
- GI50 (COLO 205 colon): 4.59 µM
- TGI (COLO 205 colon): 12.6 µM
- GI50 (KM12 colon): 4.88 µM
- TGI (KM12 colon): 16.1 µM
- GI50 (OVCAR-4 ovarian): 4.66 µM
- TGI (OVCAR-4 ovarian): 17.1 µM
- GI50 (HT29 colon): 3.97 µM
- TGI (HT29 colon): 11.2 µM
- GI50 (SF-268 CNS): 4.42 µM
- TGI (SF-268 CNS): 15.9 µM
- GI50 (UACC-257 melanoma): 2.28 µM
- TGI (UACC-257 melanoma): 4.72 µM
- GI50 (UACC-62 melanoma): 3.49 µM
- TGI (UACC-62 melanoma): 12.4 µM
- GI50 (RPMI-8226 leukemia): 3.68 µM
- TGI (RPMI-8226 leukemia): 12.3 µM
- GI50 (SNB-19 CNS): 9.29 µM
- TGI (SNB-19 CNS): 22 µM
- GI50 (T-47D breast): 6.41 µM
- TGI (T-47D breast): 12.6 µM
- GI50 (NCI-H322M lung): 3.88 µM
- TGI (NCI-H322M lung): 12.9 µM
- GI50 (SK-MEL-2 melanoma): 2.15 µM
- TGI (SK-MEL-2 melanoma): 4.8 µM
- GI50 (LOX IMVI melanoma): 2.71 µM
- TGI (LOX IMVI melanoma): 6.09 µM
- GI50 (A498 renal): 2.68 µM
- TGI (A498 renal): 8.53 µM
- GI50 (HCT-116 colon): 2.96 µM
- TGI (HCT-116 colon): 9.31 µM
- GI50 (EKVX NSCLC): 7.26 µM
- TGI (EKVX NSCLC): 15.7 µM
- GI50 (IGROV1 ovarian): 2.19 µM
- TGI (IGROV1 ovarian): 5.78 µM
